Our source for the Cell viability and CC50 values is ChEMBL document CHEMBL1131795, “The spiroketals containing a benzyloxymethyl moiety at C8 position showed the most potent apoptosis-inducing activity” (1999).

What all share (assay type): functional
The species named for assay [1] is Homo sapiens. The assay is described as follows: Cell viability of serum-deprived Jurkat cells were determined, 24 hours after incubation with 100 uM concentration of the compound, by MTT-assay. For orientation: Tetrazolium dyes change colour on reduction, which living cells bring about.
The species named for assay [2] is Homo sapiens. The assay is described as follows: Cell viability of serum-deprived Jurkat cells were determined, 24 hours after incubation with 20 uM concentration of the compound, by MTT-assay.
For assay [3], the species on record is Homo sapiens. The experiment in a line: Concentration required to cause death of human T cell leukemia Jurkat cell was determined. To be noted: read-out: LC50 (the source's name).

For the compound `CC1CC[C@]2(CCCCO2)OC1` (some centres not stated), the figures for the Cell viability in the assay listed under Homo sapiens [1] and in the assay listed under Homo sapiens [2] were 84.6% and 97.7%, respectively.
Take `C[C@@H]1CCCO[C@@]12CC[C@H](C)[C@@H](COCc1ccccc1)O2`: the Cell viability in the assay listed under Homo sapiens [1] is listed as 0%; in the assay listed under Homo sapiens [2], 1.7%. Moreover, in the assay filed under Homo sapiens [3], the CC50 worked out at 14 µM.
On to `C[C@@H]1CCCO[C@@]12CC[C@H](C)[C@@H](CO)O2`, for which the Cell viability came out at 43.8% in the assay listed under Homo sapiens [1] and 86% in the assay filed under Homo sapiens [2].
Regarding `C[C@@H]1CCCO[C@]12O[C@H](CO[Si](c1ccccc1)(c1ccccc1)C(C)(C)C)[C@@H](C)C[C@H]2S(=O)(=O)c1ccccc1`, the Cell viability is reported as 68.4% in the assay filed under Homo sapiens [1] and 79.5% in the assay listed under Homo sapiens [2].
Consider `COCOC[C@H]1O[C@@]2(CC[C@@H]1C)OCCC[C@H]2C`, for which the Cell viability in the assay filed under Homo sapiens [1] is on record as 81.5%; in the assay filed under Homo sapiens [2], 89.1%.
Take `C[C@@H]1CCCO[C@@]12CC[C@H](C)[C@@H](COCOCc1ccccc1)O2`: the Cell viability in the assay filed under Homo sapiens [1] was 0.3%; in the assay listed under Homo sapiens [2], 77.9%. Also, in the assay listed under Homo sapiens [3], the CC50 turned out to be 32 µM.
On to `C[C@@H]1CCCO[C@@]12CCCCO2`, for which the Cell viability in the assay filed under Homo sapiens [1] is recorded as 87.4%; in the assay filed under Homo sapiens [2], 98.6%.
The matching figures for `C[C@@H]1CCCO[C@@]12CC[C@H](C)[C@@H](COC1CCCCO1)O2` (some centres not stated): 60.1% and 84.1%.
As to `C[C@@H]1CCCO[C@]12O[C@H](CO)[C@@H](C)C[C@H]2S(=O)(=O)c1ccccc1`, the figures for the Cell viability in the assay listed under Homo sapiens [1] and in the assay filed under Homo sapiens [2] were 39% and 67.1%, respectively.
For the compound `C[C@@H]1CCCO[C@@]12CC[C@H](C)[C@@H](CO[Si](c1ccccc1)(c1ccccc1)C(C)(C)C)O2`, the Cell viability in the assay listed under Homo sapiens [1] is recorded as 43%; in the assay listed under Homo sapiens [2] it was 38.2%.
